One compound from US20080027088A1, “Imidazole-Based Hmg-Coa Reductase Inhibitors” (Warner-Lambert Company, LLC, priority 2004, published 2008) can be followed below.

The test relates to ApoE KO mice fed a Western diet. As to the kind of experiment: Sphinganine in liver and aorta by LC/MS, 12 weeks. In kind it is in vivo. The note with it: 0.3 mg/kg/day. The text has this:
Analysis of Sphingolipids and Phospholipids by LC/MS and HPLC-Total lipids were extracted by the modified method of Bligh-Dyer extraction (E. G. Bligh and W. J. Dyer, Can. J. Med. Sci. 1959;37:911-917; and D. K. Perry, A. Bielawska and Y. A. Hannun, Methods Enzymol. 2000;312:22-31). A Micromass (Waters Corp., Milford, Mass.) Quattro Ultima tandem quadrupole mass spectrometer with a standard Z-sprayTM ion source, set to electrospray positive ionization mode, with MassLynxTM version 3.5 operating software, was used for all quantitative determinations. Source conditions were typically as follows: capillary 3.5 kV, source temperature 110 degrees C., and desolvation temperature 325 degrees C. Multipliers were set to 650 V, and the dwell time for each analyte was 100 milliseconds. […] The following ion transitions were used for quantification: sphingomyelin (704→184 m/z), sphinganine (302→284 m/z), ceramide (566→264 m/z) and psychosine (462→282 m/z) as an internal standard. […] For the quantitative method, the analytical column was a Phenomenex (Torrance, Calif.) Polar-RP (2.0×150 mm, 4 μm) with a […] […] Lipid extracts were analyzed by HPLC and evaporative light scattering detector to determine plasma sphingomyelin and phosphatidylcholine (PC) levels (R. Homan and M.K. Anderson, J. Chromatogr. B. Biomed. Sci. Appl. 1998;708:21-6). […] Sphinganine levels in liver (A) and aorta (B) were determined by LC/MS. […]

In the case of `CCCCCCC(=O)CCCCCC/C=C/C[C@@H](O)[C@H](O)[C@@](N)(CO)C(=O)O` [myriocin], for the setting “vs Western diet-fed ApoE KO mice”, the “sphinganine levels in the liver lowered” value is given as 42%. In addition, under “vs Western diet-fed group”, the “sphinganine levels in aorta lower” value is recorded as 45%.
